The record followed here is ChEMBL document CHEMBL1126846, “Two new unsaturated fatty acid ethanolamides in brain that bind to the cannabinoid receptor” (J Med Chem, 1993).

The target of this assay is Cannabinoid receptor (Mus musculus, UniProt P47746+P47936). As to the kind of experiment: Ability to displace [3H]HU-243 binding to cannabinoid receptor in synaptosomal membrane. Type of assay: cell membranes.

Broadly, the Ki is a dissociation constant, usually derived from enzyme kinetics or from competition with a known ligand. Higher therefore signals weaker binding.

The structures appear in SMILES notation.

`CCCCC/C=C\C/C=C\C/C=C\CCCCCCCC(=O)NCCO` returned a Ki of 53.4 nM. `CCCCC/C=C\C/C=C\C/C=C\C/C=C\CCCCCC(=O)NCCO` displayed a Ki of 34.4 nM.
